Reference: the supplement of paper PMC11208160

Assay: recombinant UMI read abundance after kanamycin selection (control-corrected) (log10(CPM+1)); higher = more efficient recombination; extreme values may be limits of the assay; sequences stand for … in AGTGCAGAGAAAATCGGCCAGTTTTCTCTGCCTGCAGTCCGCATGCCGTGGGACCCCTTGGGTTCTAACCTGTTGCCTAGATTTATGCAGCGGACTGCCTTTCTCCCAAAGTGATAAACCGG…AGGTTGGTTTCACT; site = the 11-nt donor
Summary of the method: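 Sequenced counts of recombinant UMIs were turned into CPM, averaged across replicates and scaled with control-derived factors. The reported figure is log10(CPM+1). Those UMIs, each 12 nt long, tagged donor and donor-binding-loop pairs on a plasmid with a promoterless kanamycin gene, screened as a pool in Escherichia coli with IPTG (0.07 mM) plus kanamycin or without selection.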
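Note: IS621 bridge recombinase in Escherichia coli cells against a fixed T5 target plasmid.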

Sequence | recombinant UMI read abundance (log10)
CCCCCCACATGGACCGGTTTTCCCGGTAATCCGTATTTGTA (site CCCCACACTTA) | 0.00745
TGCGGACCATGGACCGGTTTTCCCGGTAATCCGTATTTGCA (site TGCGGACCTTG) | 0
ATTGAGCCATGGACCGGTTTTCCCGGTAATCCGTATTTGGT (site ATTGAGCCTAC) | 0.00384
GGTCCAACATGGACCGGTTTTCCCGGTAATCCGTATTTGTA (site GGTCCAACTAA) | 0.0196
GGAGGTTCATGGACCGGTTTTCCCGGTAATCCGTATTTGAT (site GGAGGTTCTAT) | 1.87
CATTATCCATGGACCGGTTTTCCCGGTAATCCGTATTTGCT (site GATTATCCTAG) | 0
GTAGTCGCATGGACCGGTTTTCCCGGTAATCCGTATTTGAG (site GTAGTCGCTCG) | 0.73
CGTTCACCATGGACCGGTTTTCCCGGTAATCCGTATTTGCT (site CGTTCACCTAG) | 0.00366
CATTATCCATGGACCGGTTTTCCCGGTAATCCGTATTTGCT (site TATTATCCTAG) | 0
GATGTTCCATGGACCGGTTTTCCCGGTAATCCGTATTTGGT (site GCTGTTCCTAC) | 0.00282
CGATCATCATGGACCGGTTTTCCCGGTAATCCGTATTTGCT (site CGATTTTCTAG) | 0
AGCCTTGCATGGACCGGTTTTCCCGGTAATCCGTATTTGAC (site AGCCTTTCTGT) | 0
TGCTTGACATGGACCGGTTTTCCCGGTAATCCGTATTTGCT (site TCCTTGACTAG) | 0.0059
CGGAGCACATGGACCGGTTTTCCCGGTAATCCGTATTTGAA (site CGGAGCACTTT) | 1.77
ACCTAAACATGGACCGGTTTTCCCGGTAATCCGTATTTGGG (site ACCTAAACTCC) | 0.256
CAAGCGCCATGGACCGGTTTTCCCGGTAATCCGTATTTGTG (site CATGCGCCTCA) | 0.047
CAAGCGCCATGGACCGGTTTTCCCGGTAATCCGTATTTGTG (site CAAGCGACTCA) | 0.0185
AGCCGTTCATGGACCGGTTTTCCCGGTAATCCGTATTTGAC (site AGCCCTTCTGT) | 0
GGGCTTGCATGGACCGGTTTTCCCGGTAATCCGTATTTGGA (site GGGCTTGCTTC) | 0.564
AATTATCCATGGACCGGTTTTCCCGGTAATCCGTATTTGGA (site AATTATTCTTC) | 0.322
ATGCTACCATGGACCGGTTTTCCCGGTAATCCGTATTTGCT (site GTGCTACCTAG) | 0
GTGCGAGCATGGACCGGTTTTCCCGGTAATCCGTATTTGCA (site GTCCGAGCTTG) | 0.724
GTACGCACATGGACCGGTTTTCCCGGTAATCCGTATTTGTA (site GTACGCACTTA) | 2.17
CCCCGCACATGGACCGGTTTTCCCGGTAATCCGTATTTGTA (site CCCCCCACTTA) | 0.00659
ATAAAGGCATGGACCGGTTTTCCCGGTAATCCGTATTTGCT (site ATAAAGGCTAG) | 2.75

Sequence | recombinant UMI read abundance (log10)
AACTCTACATGGACCGGTTTTCCCGGTAATCCGTATTTGTG (site AACTCTACTCA) | 0.146
CCGCACACATGGACCGGTTTTCCCGGTAATCCGTATTTGTA (site CCACACACTTA) | 0.587
TAGCCGGCATGGACCGGTTTTCCCGGTAATCCGTATTTGTA (site TAGCCGGCTTA) | 0.599
TCATATTCATGGACCGGTTTTCCCGGTAATCCGTATTTGCA (site TCATAGTCTTG) | 0.00995
GCTACTGCATGGACCGGTTTTCCCGGTAATCCGTATTTGCC (site GCTACTGCTAG) | 0.00694
CGATCATCATGGACCGGTTTTCCCGGTAATCCGTATTTGCT (site CGATCCACTAG) | 0.00991
CGCCGTACATGGACCGGTTTTCCCGGTAATCCGTATTTGCT (site CCCCGTACTAG) | 0.907
GAATGGCCATGGACCGGTTTTCCCGGTAATCCGTATTTGCA (site GCATGGCCTTG) | 0
AACCGTACATGGACCGGTTTTCCCGGTAATCCGTATTTGAT (site AACCGTTCTAT) | 0
ACTACAACATGGACCGGTTTTCCCGGTAATCCGTATTTGAG (site ACTAAAACTCT) | 0.00762
TCCACGCCATGGACCGGTTTTCCCGGTAATCCGTATTTGTA (site GCCACGCCTTA) | 0.00791
ATTGAGACATGGACCGGTTTTCCCGGTAATCCGTATTTGGC (site ATTGAGACTTC) | 0.679
TTATGCGCATGGACCGGTTTTCCCGGTAATCCGTATTTGCC (site TTATGCGCTGG) | 1.93
ACTATTGCATGGACCGGTTTTCCCGGTAATCCGTATTTGGT (site ACTAGTGCTAC) | 0.023
TACATGACATGGACCGGTTTTCCCGGTAATCCGTATTTGCT (site TACCTGACTAG) | 0.938
AAACGAGCATGGACCGGTTTTCCCGGTAATCCGTATTTGAG (site AAACGAGCTCT) | 1.78
ATTGCGACATGGACCGGTTTTCCCGGTAATCCGTATTTGGT (site ATTGCGACTAC) | 0.639
GCGCGCACATGGACCGGTTTTCCCGGTAATCCGTATTTGCT (site GCGCGCACTAG) | 2.68
CGTAATCCATGGACCGGTTTTCCCGGTAATCCGTATTTGTT (site CGAAATCCTAA) | 0.00285
TAAAGTCCATGGACCGGTTTTCCCGGTAATCCGTATTTGTA (site TAAAGGCCTTA) | 0.00572
CGGAATCCATGGACCGGTTTTCCCGGTAATCCGTATTTGTT (site CGGAATCCTTG) | 0
AGGTCAGCATGGACCGGTTTTCCCGGTAATCCGTATTTGGG (site AGTTCAGCTCC) | 0.0281
ACATCTACATGGACCGGTTTTCCCGGTAATCCGTATTTGTG (site ACAACTACTCA) | 0.00896
ACATCTACATGGACCGGTTTTCCCGGTAATCCGTATTTGTG (site ACATCAACTCA) | 0.0141
GTGAAGCCATGGACCGGTTTTCCCGGTAATCCGTATTTGGG (site GAGAAGCCTCC) | 0.0044

Sequence | recombinant UMI read abundance (log10)
GCAGAGTCATGGACCGGTTTTCCCGGTAATCCGTATTTGTA (site GCAGAGTCTTA) | 3.17
GTATAGACATGGACCGGTTTTCCCGGTAATCCGTATTTGCC (site GAATAGACTGG) | 2.37
ATGTATACATGGACCGGTTTTCCCGGTAATCCGTATTTGAC (site ATCTATACTGT) | 0.457
ACCGTAGCATGGACCGGTTTTCCCGGTAATCCGTATTTGTG (site ACCGTAGCTCA) | 0.533
ACCTAGCCATGGACCGGTTTTCCCGGTAATCCGTATTTGGG (site ACCTAGTCTCC) | 0.0502
GGTCCAACATGGACCGGTTTTCCCGGTAATCCGTATTTGTA (site GGGCCAACTTA) | 0.00345
ACTAGTGCATGGACCGGTTTTCCCGGTAATCCGTATTTGGG (site ACTAGTGCTAC) | 0.0186
AAGTCTACATGGACCGGTTTTCCCGGTAATCCGTATTTGTA (site AAGTCTACTTA) | 0.646
GCTACTGCATGGACCGGTTTTCCCGGTAATCCGTATTTGCC (site GGTACTGCTGG) | 1.03
TATAGGACATGGACCGGTTTTCCCGGTAATCCGTATTTGAT (site TATAGGACTAT) | 1.11
ATAAGGTCATGGACCGGTTTTCCCGGTAATCCGTATTTGAC (site ATAAGGTCTGT) | 3.4
CTTCACTCATGGACCGGTTTTCCCGGTAATCCGTATTTGTA (site CTTCGCTCTTA) | 0.00683
GACAAACCATGGACCGGTTTTCCCGGTAATCCGTATTTGGT (site GACAAACCTAG) | 0
GTTGTGCCATGGACCGGTTTTCCCGGTAATCCGTATTTGGT (site GTTGTGCCTAC) | 0.0934
CGGAATCCATGGACCGGTTTTCCCGGTAATCCGTATTTGTT (site GGGAGTCCTAA) | 0.00491
CAGTCGACATGGACCGGTTTTCCCGGTAATCCGTATTTGCG (site CAGTCGACTCC) | 0
CAAGCCGCATGGACCGGTTTTCCCGGTAATCCGTATTTGCT (site CAAGCCGCTAG) | 2.56
CCCTTCGCATGGACCGGTTTTCCCGGTAATCCGTATTTGGG (site CCCTTCACTCC) | 0.0167
GAGCCCACATGGACCGGTTTTCCCGGTAATCCGTATTTGAT (site GAGCACACTAT) | 0
GGAGATTCATGGACCGGTTTTCCCGGTAATCCGTATTTGTT (site GAAGATTCTAA) | 0
GTGTTGACATGGACCGGTTTTCCCGGTAATCCGTATTTGTG (site GTGTTGACTCA) | 1.33
CGGGCATCATGGACCGGTTTTCCCGGTAATCCGTATTTGTA (site CGGGCATCTTA) | 2.38
ATTGAGCCATGGACCGGTTTTCCCGGTAATCCGTATTTGGT (site ATTGAGGCTAC) | 0.0212
GGTTCCCCATGGACCGGTTTTCCCGGTAATCCGTATTTGTA (site CGTTCCCCTTA) | 0.00861
CAGTCGACATGGACCGGTTTTCCCGGTAATCCGTATTTGGC (site CAGTCGACTGC) | 1.37
